Measurements from patent publication US9809574B2, “Isoindoline or isoquinoline compounds, a process for their preparation and pharmaceutical compositions containing them” (LES LABORATOIRES SERVIER, priority 2013, dated 2017).
Where a name gives a salt, the structure may show the parent alone.

What was measured:
Bcl-2 protein = Bcl-2 protein (histag-Bcl-2, UniProtKB P10415) (Homo sapiens (Human), UniProt P10415); test: Inhibition of Bcl-2 by the fluorescence polarisation technique; type: binding; conditions: fluorescence polarisation test; incubation for 2 hours; read-out: IC50 (nM) Bcl-2 FP
Bcl-2 protein, sequence (P10415 whole entry): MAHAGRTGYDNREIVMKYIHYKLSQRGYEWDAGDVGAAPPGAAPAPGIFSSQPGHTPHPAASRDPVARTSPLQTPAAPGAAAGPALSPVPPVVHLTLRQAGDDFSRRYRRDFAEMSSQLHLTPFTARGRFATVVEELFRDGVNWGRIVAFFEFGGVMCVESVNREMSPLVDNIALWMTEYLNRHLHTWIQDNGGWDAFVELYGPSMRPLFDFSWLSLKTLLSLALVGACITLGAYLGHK
From the text: For partial inhibitors, the percentage fluorescence polarisation inhibition for a given concentration of the test compound is indicated.

[1] = system: RS4; 11 leukaemia cell line; test: In vitro cytotoxicity, Microculture Tetrazolium Assay (MTT); type: cell-based; conditions: Homo sapiens, 11 cells exposed for 48 hours
Experimental: The cytotoxicity studies were carried out on the RS4; 11 leukaemia cell line and on H146 small Cell Lung Carcinoma cell line. The cells are distributed onto microplates and exposed to the test compounds for 48 hours. The cell viability is then quantified by a colorimetric assay, the Microculture Tetrazolium Assay (Cancer Res., 1987, 47, 939-942).

Row | Compound | IC50 (Bcl-2 protein) | IC50 [1]
1 | Cc1cccc(OC(=O)N2CCc3cc(-c4cc(C(=O)N(C)c5ccc(O)cc5)c5n4CCCC5)c(C(=O)N4Cc5ccccc5C[C@H]4CN4CCOCC4)cc3C2)c1 [Example 99, 3-Methylphenyl 6-{1-[(4-hydroxyphenyl)(methyl)carbamoyl]-5,6,7,8-tetrahydroindolizin-3-yl}-7-[(3S)-3-(morpholin-4-ylmethyl)-1,2,3,4-tetrahydroisoquinoline-2-carbonyl]-1,2,3,4-tetrahydroisoquinoline-2-carboxylate] | 5.5 nM | 13 nM
2 | Cc1ccccc1OC(=O)N1CCc2cc(-c3cc(C(=O)N(C)c4ccc(O)cc4)c4n3CCCC4)c(C(=O)N3Cc4ccccc4C[C@H]3CN3CCOCC3)cc2C1 [Example 100, 2-Methylphenyl 6-{1-[(4-hydroxyphenyl)(methyl)carbamoyl]-5,6,7,8-tetrahydroindolizin-3-yl}-7-[(3S)-3-(morpholin-4-ylmethyl)-1,2,3,4-tetrahydroisoquinoline-2-carbonyl]-1,2,3,4-tetrahydroisoquinoline-2-carboxylate] | 3.9 nM | 6.5 nM
3 | COc1ccc(CC(=O)N2Cc3cc(C(=O)N4Cc5ccccc5C[C@H]4C)c(-c4cc(C(=O)N(C)c5ccc(O)cc5)c(C)n4C)cc3C2)cc1 [Example 101, N-(4-Hydroxyphenyl)-5-{2-[2-(4-methoxyphenyl)acetyl]-6-[(3R)-3-methyl-1,2,3,4-tetrahydroisoquinoline-2-carbonyl]-2,3-dihydro-1H-isoindol-5-yl}-N,1,2-trimethyl-1H-pyrrole-3-carboxamide] | 2.6 nM | 31 nM
4 | Cc1c(C(=O)N(C)c2ccc(O)cc2)cc(-c2cc3c(cc2C(=O)N2Cc4ccccc4C[C@H]2C)CN(C(=O)Cc2ccc(F)cc2)C3)n1C [Example 102, 5-{2-[2-(4-Fluorophenyl)acetyl]-6-[(3R)-3-methyl-1,2,3,4-tetrahydroisoquinoline-2-carbonyl]-2,3-dihydro-1H-isoindol-5-yl}-N-(4-hydroxyphenyl)-N,1,2-trimethyl-1H-pyrrole-3-carboxamide] | 5 nM | 75 nM
5 | Cc1c(C(=O)N(C)c2ccc(O)cc2)cc(-c2cc3c(cc2C(=O)N2Cc4ccccc4C[C@H]2C)CN(C(=O)COc2ccccc2)C3)n1C [Example 103, N-(4-Hydroxyphenyl)-N,1,2-trimethyl-5-{6-[(3R)-3-methyl-1,2,3,4-tetrahydroisoquinoline-2-carbonyl]-2-(2-phenoxyacetyl)-2,3-dihydro-1H-isoindol-5-yl}-1H-pyrrole-3-carboxamide] | 3.6 nM | 46 nM
6 | Cc1c(C(=O)N(C)c2ccc(O)cc2)cc(-c2cc3c(cc2C(=O)N2Cc4ccccc4C[C@H]2C)CN(C(=O)C(C)Oc2ccccc2)C3)n1C (stereo partly drawn) [Example 104, N-(4-hydroxyphenyl)-N,1,2-trimethyl-5-{6-[(3R)-3-methyl-1,2,3,4-tetrahydroisoquinoline-2-carbonyl]-2-(2-phenoxypropanoyl)-2,3-dihydro-1H-isoindol-5-yl}-1H-pyrrole-3-carboxamide] | 6.7 nM | 65 nM
7 | Cc1c(C(=O)N(C)c2ccc(O)cc2)cc(-c2cc3c(cc2C(=O)N2Cc4ccccc4C[C@H]2C)CN(C(=O)Oc2ccc(Cl)cc2)C3)n1C [Example 105, 4-Chlorophenyl 5-{4-[(4-hydroxyphenyl)(methyl)carbamoyl]-1,5-dimethyl-1H-pyrrol-2-yl}-6-[(3R)-3-methyl-1,2,3,4-tetrahydroisoquinoline-2-carbonyl]-2,3-dihydro-1H-isoindole-2-carboxylate] | 7.3 nM | 31 nM
8 | Cc1c(C(=O)N(C)c2ccc(O)cc2)cc(-c2cc3c(cc2C(=O)N2Cc4ccccc4C[C@H]2C)CN(C(=O)Oc2ccc(F)cc2)C3)n1C [Example 106, 4-Fluorophenyl 5-{4-[(4-hydroxyphenyl)(methyl)carbamoyl]-1,5-dimethyl-1H-pyrrol-2-yl}-6-[(3R)-3-methyl-1,2,3,4-tetrahydroisoquinoline-2-carbonyl]-2,3-dihydro-1H-isoindole-2-carboxylate] | 5.3 nM | 38 nM
9 | C[C@@H]1Cc2ccccc2CN1C(=O)c1cc2c(cc1-c1cc(C(=O)N(C)c3ccc(O)cc3)c3n1CCCC3)CCN(C(=O)Cc1ccc(NCCN(C)C)cc1)C2 [Example 108, 3-{2-[2-(4-{[2-(Dimethylamino)ethyl]amino}phenyl)acetyl]-7-[(3R)-3-methyl-1,2,3,4-tetrahydroisoquinoline-2-carbonyl]-1,2,3,4-tetrahydroisoquinolin-6-yl}-N-(4-hydroxyphenyl)-N-methyl-5,6,7,8-tetrahydroindolizine-1-carboxamide hydrochloride] | 2.7 nM | 15 nM
10 | CCNC(=O)N1Cc2cc(C(=O)N3Cc4ccccc4C[C@H]3C)c(-c3cc(C(=O)N(C)c4ccc(O)cc4)c(C)n3C)cc2C1 [Example 110, N-Ethyl-5-{4-[(4-hydroxyphenyl)(methyl)carbamoyl]-1,5-dimethyl-1H-pyrrol-2-yl}-6-[(3R)-3-methyl-1,2,3,4-tetrahydroisoquinoline-2-carbonyl]-2,3-dihydro-1H-isoindole-2-carboxamide] | 19 nM | 329 nM
11 | Cc1c(C(=O)N(C)c2ccc(O)cc2)cc(-c2cc3c(cc2C(=O)N2Cc4ccccc4C[C@H]2C)CN(C(=O)NCc2ccccc2)C3)n1C [Example 111, N-Benzyl-5-{4-[(4-hydroxyphenyl)(methyl)carbamoyl]-1,5-dimethyl-1H-pyrrol-2-yl}-6-[(3R)-3-methyl-1,2,3,4-tetrahydroisoquinoline-2-carbonyl]-2,3-dihydro-1H-isoindole-2-carboxamide] | 8.4 nM | 64 nM
12 | Cc1c(C(=O)N(C)c2ccccc2)cc(-c2cc3c(cc2C(=O)N2Cc4ccccc4C[C@H]2CN2CCOCC2)CN(C(=O)Oc2ccccc2)CC3)n1C [Example 115, Phenyl 6-{1,5-dimethyl-4-[methyl(phenyl)carbamoyl]-1H-pyrrol-2-yl}-7-[(3S)-3-(morpholin-4-ylmethyl)-1,2,3,4-tetrahydroisoquinoline-2-carbonyl]-1,2,3,4-tetrahydroisoquinoline-2-carboxylate] | 3.4 nM | 24 nM
13 | Cc1c(C(=O)N(C)c2ccccc2)cc(-c2cc3c(cc2C(=O)N2Cc4ccccc4C[C@H]2CN2CCOCC2)CN(C(=O)Cc2ccccc2)CC3)n1C [Example 117, N,1,2-trimethyl-5-{7-[(3S)-3-(morpholin-4-ylmethyl)-1,2,3,4-tetrahydroisoquinoline-2-carbonyl]-2-(2-phenylacetyl)-1,2,3,4-tetrahydroisoquinolin-6-yl}-N-phenyl-1H-pyrrole-3-carboxamide] | 2.5 nM | 39 nM

The remaining compounds from weak to strong by IC50 (Bcl-2 protein), led by results:

Row | IC50 (Bcl-2 protein) | Compound | IC50 [1]
14 | 42 nM | CC(=O)N1Cc2cc(C(=O)N3Cc4ccccc4C[C@H]3C)c(-c3cc(C(=O)N(C)c4ccc(O)cc4)c(C)n3C)cc2C1 [Example 112, 5-{2-Acetyl-6-[(3R)-3-methyl-1,2,3,4-tetrahydroisoquinoline-2-carbonyl]-2,3-dihydro-1H-isoindol-5-yl}-N-(4-hydroxyphenyl)-N,1,2-trimethyl-1H-pyrrole-3-carboxamide] | 394 nM
15 | 21 nM | COc1ccc(CCCN2Cc3cc(C(=O)N4Cc5ccccc5C[C@H]4C)c(-c4cc(C(=O)N(C)c5ccc(O)cc5)c(C)n4C)cc3C2)cc1 [Example 116, N-(4-Hydroxyphenyl)-5-{2-[3-(4-methoxyphenyl)propyl]-6-[(3R)-3-methyl-1,2,3,4-tetrahydroisoquinoline-2-carbonyl]-2,3-dihydro-1H-isoindol-5-yl}-N,1,2-trimethyl-1H-pyrrole-3-carboxamide] | 181 nM
16 | 8.6 nM | C[C@@H]1Cc2ccccc2CN1C(=O)c1cc2c(cc1-c1cc(C(=O)N(C)c3ccc(O)cc3)c3n1CCCC3)CCN(C(=O)C1(c3ccccc3)CC1)C2 [Example 109, N-(4-Hydroxyphenyl)-N-methyl-3-{7-[(3R)-3-methyl-1,2,3,4-tetrahydroisoquinoline-2-carbonyl]-2-(1-phenylcyclopropanecarbonyl)-1,2,3,4-tetrahydroisoquinolin-6-yl}-5,6,7,8-tetrahydroindolizine-1-carboxamide] | 89 nM
17 | 3.8 nM | Cc1c(C(=O)N(C)c2ccccc2)cc(-c2cc3c(cc2C(=O)N2Cc4ccccc4C[C@H]2C)CN(C(=O)Oc2ccccc2)CC3)n1C [Example 114, Phenyl 6-{1,5-dimethyl-4-[methyl(phenyl)carbamoyl]-1H-pyrrol-2-yl}-7-[(3R)-3-methyl-1,2,3,4-tetrahydroisoquinoline-2-carbonyl]-1,2,3,4-tetrahydroisoquinoline-2-carboxylate] | 28 nM
18 | 3.6 nM | C[C@@H]1Cc2ccccc2CN1C(=O)c1cc2c(cc1-c1cc(C(=O)N(C)c3ccc(O)cc3)c3n1CCCC3)CCN(C(=O)Cc1ccc(CN3CCN(C)CC3)cc1)C2 [Example 113, N-(4-Hydroxyphenyl)-N-methyl-3-{7-[(3R)-3-methyl-1,2,3,4-tetrahydroisoquinoline-2-carbonyl]-2-(2-{4-[(4-methylpiperazin-1-yl)methyl]phenyl}acetyl)-1,2,3,4-tetrahydroisoquinolin-6-yl}-5,6,7,8-tetrahydroindolizine-1-carboxamide] | 25 nM
19 | 3.5 nM | Cc1ccc(OC(=O)N2Cc3cc(C(=O)N4Cc5ccccc5C[C@H]4C)c(-c4cc(C(=O)N(C)c5ccc(O)cc5)c(C)n4C)cc3C2)cc1 [Example 107, 4-Methylphenyl 5-{4-[(4-hydroxyphenyl)(methyl)carbamoyl]-1,5-dimethyl-1H-pyrrol-2-yl}-6-[(3R)-3-methyl-1,2,3,4-tetrahydroisoquinoline-2-carbonyl]-2,3-dihydro-1H-isoindole-2-carboxylate] | 6.9 nM
